The values that follow come from paper PMC6271975, “Structure-Activity Relationship Study of Sesquiterpene Lactones and Their Semi-Synthetic Amino Derivatives as Potential Antitrypanosomal Products” (Molecules, 2014).

Read-outs that look alike come from different tables or passages of the source.

Experiment [1] has as its system T. b. rhodesiense STIB 900 bloodstream forms. Details: method as in PMID 22331812, PMID 24080104, PMID 21624443, PMID 22396915. To be noted: cited from earlier work; for SI (Selectivity Index): IC50 against L6 cells divided by IC50 against STIB 900 strain, previously reported compounds; for IC50: previously reported compounds included for comparison, compound 9 tested once, read-out: T. brucei STIB 900 IC50.

Experiment [2] concerns rat skeletal myoblasts (L6-cells). Details: method as in PMID 22331812, PMID 24080104, PMID 21624443, PMID 22396915. To be noted: cytotoxicity; previously reported compounds included for comparison; cited from earlier work.
Experiment [3] has as its system T. b. rhodesiense STIB 900 bloodstream forms. In words: In vitro antitrypanosomal Alamar Blue assay. Type of experiment: cell-based, Trypanosoma brucei rhodesiense. The note with it: for SI (Selectivity Index): IC50 against L6 cells divided by IC50 against STIB 900 strain; for IC50: read-out: T. brucei STIB 900 IC50. The method, then:
Evaluation of in vitro antiprotozoal activity against T. b. rhodesiense was done using the Alamar Blue assay to determine IC50s as previously described. Serial threefold dilution were prepared in 96-well micro titre plates, and 4000 T. b. rhodesiense STIB 900 bloodstream forms in 50 μL were added to each well except for the negative controls. Melarsoprol (Arsobal®, purity > 95%, Sanofi-Aventis, Meyrin, Switzerland) was used as reference drugs. […] The IC50 values were calculated from the sigmoidal growth inhibition curves using Softmax Pro software (Molecular Devices).

Experiment [4] deals with rat skeletal myoblasts (L6-cells). Briefly: cells. The note with it: read-out: L6 cells IC50. Type of experiment: cell-based. How it is done: The cytotoxicity assay was performed with rat skeletal myoblasts (L6-cells) seeded in 100 μL RPMI 1640 in 96-well micro titre plates, using the Alamar Blue assay described above. After 24 h the medium was removed and replaced by 100 μL of fresh RPMI 1640 with serial threefold drug dilution. Podophyllotoxin (purity > 95%, Sigma-Aldrich) was used as a reference drug. After 70 h of incubation under a humidified 5% CO2 atmosphere, 10 μL of the Alamar blue marker (see above) was added to all wells. The plates were incubated for an additional 2 h. A Spectramax Gemini XS micro plate fluorescence reader (Molecular Devices) was used to read the plates using an excitation wavelength of 536 nm and an emission wavelength of 588 nm. The IC50s were calculated from the sigmoidal growth inhibition curves using Softmax Pro software (Molecular Devices).

The mark [5] stands for this setting: Trypanosoma brucei, 70 h, 70 h incubation, average of three independent assays.
[6] abbreviates: Rattus norvegicus, L6, 70 h, cytotoxicity, 70 h incubation, average of three independent assays.
Where [7] appears, read: 70 h incubation, average of three independent assays.
The mark [8] stands for this setting: Trypanosoma brucei, 70 h incubation, average of three independent assays.
Where [9] appears, read: Rattus norvegicus, L6, cytotoxicity, 70 h incubation, average of three independent assays.

Take `C=C(CO)C(=O)O[C@H]1C/C(C)=C\CC/C(CO)=C\[C@H]2OC(=O)C(=C)[C@H]12` [Compound 2, Onopordopicrin]: the “SI (Selectivity Index)” value in experiment [1] is recorded as 8.2. The figures for the IC50 in experiment [1] and in experiment [2] were 0.4 ± 0.01 µM and 3.1 ± 1.1 µM, respectively.
For the compound `C=C1C(=O)O[C@@H]2/C=C(\CO)CC/C=C(\C)C[C@H](OC(=O)C(=C)[C@H](O)CO)[C@@H]12` [Compound 3, Cnicin], the “SI (Selectivity Index)” value in experiment [3] turned out to be 10. For the same compound, the IC50 in experiment [3] (setting [5]) came to 0.4 ± 0.1 µM; in experiment [4] (setting [6]), 4.2 ± 0.9 µM.
For the compound `C=C[C@@]12COC(=O)C(=C)[C@@H]1[C@H]1OC(=O)C(=C)[C@@H]1[C@@H](OC(=O)C(=C)CO)C2` [Compound 4, Vernodalin], the “SI (Selectivity Index)” value in experiment [3] was 3. The IC50 in experiment [3] (setting [5]) is 0.2 ± 0.01 µM; in experiment [4] (setting [6]), 0.6 ± 0.02 µM.
As to `C=C1CC[C@H]2C(=C)CC[C@H]3C(=C)C(=O)O[C@@H]3[C@@H]12` [Compound 6, dehydrocostuslactone], the “SI (Selectivity Index)” value in experiment [1] is given as 1.9. Besides, the IC50 is 4.4 ± 1.2 µM in experiment [1] and 8.3 ± 1.9 µM in experiment [2].
Turning to `C=C1C(=O)O[C@@H]2/C=C(\C)CC/C=C(\C)CC[C@@H]12` [Compound 7, costunolide], in experiment [1], the “SI (Selectivity Index)” value is recorded as 5.9 and the IC50 was 1.3 ± 0.4 µM. In addition, in experiment [2], the IC50 is 7.7 ± 1.3 µM.
On to `C=C1C(=O)O[C@H]2[C@H]1CC/C(C)=C/CC[C@@]1(C)O[C@@H]21` [Compound 8, parthenolide], for which, in experiment [1], the “SI (Selectivity Index)” value is on record as 6.5 and the IC50 is 0.8 ± 0.5 µM. Also, the IC50 in experiment [2] was 5.2 ± 0.9 µM.
Take `C=C1C(=O)OC2C1CCC(=C)C1CC(OC(C)=O)C(=C)C12` (stereo not drawn) [Compound 9, Zaluzanin D]: in experiment [1], the “SI (Selectivity Index)” value is 1.4 and the IC50 was 10.8 µM. In addition, the IC50 in experiment [2] was 15.6 µM.
Turning to `C=C1C(=O)OC2C3=C(C)C(=O)CC3C(C)(OC(C)=O)CCC12` (stereo not drawn) [Compound 10], the half-inhibitory concentration (IC50) was 0.6 ± 0.2 µM in experiment [3] (setting [7]), 0.7 µM in experiment [3] (setting [5]) and 4.3 ± 0.5 µM in experiment [4] (setting [6]). The “SI (Selectivity Index)” value in experiment [3] came out at 7.6.
`C=C1C(=O)O[C@@H]2[C@H]1CC[C@H](C)[C@]1(CCC(=O)O1)[C@@]2(C)O` [Compound 11, Psilostachyin A]: in experiment [3], the “SI (Selectivity Index)” value amounted to 1.2. In addition, the IC50 in experiment [3] (setting [5]) was 5.8 ± 0.7 µM; in experiment [4] (setting [6]), 6.9 ± 1.8 µM.
Consider `C=C1C(=O)O[C@@H]2/C=C(\C)CC/C=C(\C)C[C@@H](OC(=O)/C(=C/CO)CO)[C@@H]12` [Compound 13, Eupatoriopicrin], for which, in experiment [1], the “SI (Selectivity Index)” value is given as 1.3 and the half-inhibitory concentration (IC50) was 1.2 ± 0.2 µM. For the same compound, the IC50 in experiment [2] is 1.6 ± 0.1 µM.
For the compound `C=C1C(=O)O[C@@H]2/C=C(/C)[C@@H](O)C/C=C(\C)C[C@H](OC(=O)/C(C)=C\C)[C@@H]12` [Compound 14, Nobilin], the IC50 in experiment [4] (Rattus norvegicus, L6, 70 h) was found to be 10.5 ± 0.1 µM.
With `CC1=C2C3OC(=O)C(C)C3CCC(C)(O)C2CC1O` (stereo not drawn) [Compound 15, 3-Hydroxyisophotosantonin], the “SI (Selectivity Index)” value in experiment [3] came out at 6.4. Further, the IC50 is 54.7 ± 8 µM in experiment [3] (setting [5]) and 353 ± 4 µM in experiment [4] (setting [6]).
As for `CC(=O)OC1(C)CCC2C(C)C(=O)OC2C2=C(C)C(=O)CC21` (stereo not drawn) [Compound 16], the values for the IC50 in experiment [3] (setting [7]), in experiment [3] (setting [5]) and in experiment [4] (setting [6]) were 45.7 ± 5 µM, 46 µM and over 292 µM, respectively. For the same compound, the “SI (Selectivity Index)” value in experiment [3] is over 6.4.
For the compound `CC1=C2[C@H]3OC(=O)[C@@H](C)[C@@H]3CC[C@@]2(C)C=CC1=O` [Compound 17, Santonin], in experiment [3], the “SI (Selectivity Index)” value is recorded as over 8.8. In addition, the IC50 in experiment [3] (setting [8]) was 41.5 ± 0.8 µM; in experiment [4] (setting [9]), over 366 µM.
The matching figures for `CC1C(=O)OC2C1CCC1(C)C=CC(=O)C(C)C21` (stereo not drawn) [Compound 18]: 2.6, 12.9 ± 2.4 µM and 34 ± 1.5 µM.
As for `C=C1CC(O)C2C(CN(C)C)C(=O)OC2C2C(=C)C(O)CC12` (stereo not drawn) [Compound 20, Deacylcynaropicrin dimethylamine adduct], the “SI (Selectivity Index)” value in experiment [3] stood at 2.5. The IC50 in experiment [3] (setting [5]) was determined as 3.6 ± 1 µM; in experiment [4] (setting [6]), 8.6 ± 1.3 µM.
On the same counts, the results for `CCN(CC)CC1C(=O)OC2C3=C(C)C(=O)CC3C(C)(O)CCC12` (stereo not drawn) [Compound 21, Deacylated diethylamine adduct] are 2.2, 4.2 ± 0.8 µM and 9.4 ± 2.2 µM.
On the same counts, the results for `CC(=O)OC1(C)CCC2C(CN3CCOCC3)C(=O)OC2C2=C(C)C(=O)CC21` (stereo not drawn) [Compound 22, Morpholine adduct] are 10.3, 0.7 ± 0.1 µM and 7.4 ± 0.8 µM.
The matching figures for `CC1C(=O)CCC2(C)CCC3C(CN4CCOCC4)C(=O)OC3C12` (stereo not drawn) [Compound 23, Morpholine adduct]: 5.6, 11.8 ± 2.7 µM and 65.6 ± 9.7 µM.
In the case of `CC1C(=O)C=CC2(C)CCC3C(CN4CCOCC4)C(=O)OC3C12` (stereo not drawn) [Compound 24, Morpholine adduct], the “SI (Selectivity Index)” value in experiment [3] turned out to be 13.3. The IC50 in experiment [3] (setting [5]) is 2.4 ± 0.7 µM; in experiment [4] (setting [6]) it was 31.3 ± 1.4 µM.
On the same counts, the results for `CC12CCC3C(CN4CCOCC4)C(=O)OC3C13C=CC(=O)C23C` (stereo not drawn) [Compound 25, Morpholine adduct] are 3.8, 2.6 ± 0.5 µM and 9.9 ± 1.6 µM.
The matching figures for `CC1C(=O)C=CC2(C)CCC3C(CNCCc4ccc(O)cc4)C(=O)OC3C12` (stereo not drawn) [Compound 26, Tyramine adduct]: over 35.0, 6.7 ± 1.3 µM and over 236 µM.
Turning to `CC1C(=O)CCC2(C)CCC3C(CNCCc4ccc(O)cc4)C(=O)OC3C12` (stereo not drawn) [Compound 27, Tyramine adduct], the “SI (Selectivity Index)” value in experiment [3] turned out to be 4. For the same compound, the IC50 in experiment [3] (setting [5]) was 13 ± 1.4 µM; in experiment [4] (setting [6]), 45.6 ± 3.2 µM.
The matching figures for `CC1=C2C3OC(=O)C(CNCCc4ccc(O)cc4)C3CCC2(C)C=CC1=O` (stereo not drawn) [Compound 28, Tyramine adduct]: 6.5, 13.4 ± 1.1 µM and 87.9 ± 2.2 µM.
As for `CC(=O)OC1(C)CCC2C(CNCCc3ccc(O)cc3)C(=O)OC2C2=C(C)C(=O)CC21` (stereo not drawn) [Compound 29, Tyramine adduct], the “SI (Selectivity Index)” value in experiment [3] is given as 3.3. The IC50 worked out at 6.6 ± 0.7 µM in experiment [3] (setting [5]) and 22.1 ± 4 µM in experiment [4] (setting [6]).
Consider `CC12CCC3C(CNCCc4ccc(O)cc4)C(=O)OC3C13C=CC(=O)C23C` (stereo not drawn) [Compound 30, Tyramine adduct], for which, in experiment [3], the “SI (Selectivity Index)” value came out at 3.2. For the same compound, the IC50 in experiment [3] (setting [5]) worked out at 9.9 ± 1.6 µM; in experiment [4] (setting [6]), 31.8 ± 1.3 µM.
As for `CC1=C2C3OC(=O)C(CN4CCN(c5ccccc5Cl)CC4)C3CCC2(C)C=CC1=O` (stereo not drawn) [Compound 31, 1-(2-Chlorophenyl)piperazine adduct], the IC50 is 7 ± 2.2 µM in experiment [3] (setting [7]); over 5 µM in experiment [3] (setting [5]); over 20 µM in experiment [4] (setting [6]); 21.8 ± 2.7 µM in experiment [4] (cytotoxicity, 70 h incubation, average of three independent assays). Further, the “SI (Selectivity Index)” value in experiment [3] was 3.1.
For `CC1=C2C3OC(=O)C(CNCc4ccc(Cl)cc4)C3CCC2(C)C=CC1=O` (stereo not drawn) [Compound 32, 4-Chlorobenzylamine adduct], the “SI (Selectivity Index)” value in experiment [3] is 3.4. Also, the IC50 in experiment [3] (setting [5]) stood at 10.6 ± 1.5 µM; in experiment [4] (setting [6]), 34.8 ± 1.2 µM.
In the case of `CC12CCC3C(CNCCc4ccc(Cl)cc4)C(=O)OC3C13C=CC(=O)C23C` (stereo not drawn) [Compound 33, 2-(4-Chlorophenyl)ethylamine adduct], the “SI (Selectivity Index)” value in experiment [3] was 2.7. The half-inhibitory concentration (IC50) came to 10.2 ± 3.2 µM in experiment [3] (setting [5]) and 27.6 ± 6.7 µM in experiment [4] (setting [6]).
The matching figures for `CC(=O)OC1(C)CCC2C(CNCCc3ccc(Cl)cc3)C(=O)OC2C2=C(C)C(=O)CC21` (stereo not drawn) [Compound 34, 2-(4-Chlorophenyl)ethylamine adduct]: 4.2, 5.4 ± 1.1 µM and 22.5 ± 1.6 µM.
With `Nc1nc(N)nc(Nc2ccc([As]3SCC(CO)S3)cc2)n1` (stereo not drawn) [Melarsoprol, reference compound], the “SI (Selectivity Index)” value in experiment [3] amounted to 2170. The IC50 amounted to 0.01 ± 0.01 µM in experiment [3] (Trypanosoma brucei, 70 h) and 21.7 ± 8.7 µM in experiment [4] (Rattus norvegicus, L6, 70 h).
Take `COc1cc([C@@H]2c3cc4c(cc3[C@H](O)[C@H]3COC(=O)[C@H]23)OCO4)cc(OC)c1OC` [Podophyllotoxin, reference compound]: the IC50 in experiment [4] (Rattus norvegicus, L6, 70 h) came out at 0.02 ± 0.01 µM.
